Laboratory results taken from patent publication US20250042895A1, “INHIBITORS OF ULK1 AND METHODS OF USE” (H. LEE MOFFITT CANCER CENTER AND RESEARCH INSTITUTE, INC., priority 2021, published 2025).

How the values were obtained:
ULK1 kinase domain = biological target: T1, ULK1 kinase domain (Homo sapiens, UniProt O75385); assay: Differential scanning fluorimetry (thermal shift); format: binding; conditions: 2 μM ULK1 kinase domain, 50 μM compound, vs DMSO reference
T1 construct: The protein expression construct of ULK1 kinase domain (1-283) was cloned; 6His-Sumo (N, cleaved yes); made in house; host or cells: E. coli BL21 star, co-expressed with lambda phosphatase
T1 sequence (O75385 1-283): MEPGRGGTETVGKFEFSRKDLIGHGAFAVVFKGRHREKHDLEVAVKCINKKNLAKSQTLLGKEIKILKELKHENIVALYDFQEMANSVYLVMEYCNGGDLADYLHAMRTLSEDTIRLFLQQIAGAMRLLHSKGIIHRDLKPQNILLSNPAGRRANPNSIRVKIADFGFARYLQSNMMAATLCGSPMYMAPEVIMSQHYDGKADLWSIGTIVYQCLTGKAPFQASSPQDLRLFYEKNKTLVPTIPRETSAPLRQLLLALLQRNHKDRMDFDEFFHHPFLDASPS

ULK1 kinase = biological target: T2, ULK1 kinase (Homo sapiens, UniProt O75385); assay: Radiometric HotSpot kinase assay (Reaction Biology); format: biochemical; conditions: activity-based ULK1 kinase assay
T2 construct: purchased Reaction Biology
T2 sequence (O75385 1-1050): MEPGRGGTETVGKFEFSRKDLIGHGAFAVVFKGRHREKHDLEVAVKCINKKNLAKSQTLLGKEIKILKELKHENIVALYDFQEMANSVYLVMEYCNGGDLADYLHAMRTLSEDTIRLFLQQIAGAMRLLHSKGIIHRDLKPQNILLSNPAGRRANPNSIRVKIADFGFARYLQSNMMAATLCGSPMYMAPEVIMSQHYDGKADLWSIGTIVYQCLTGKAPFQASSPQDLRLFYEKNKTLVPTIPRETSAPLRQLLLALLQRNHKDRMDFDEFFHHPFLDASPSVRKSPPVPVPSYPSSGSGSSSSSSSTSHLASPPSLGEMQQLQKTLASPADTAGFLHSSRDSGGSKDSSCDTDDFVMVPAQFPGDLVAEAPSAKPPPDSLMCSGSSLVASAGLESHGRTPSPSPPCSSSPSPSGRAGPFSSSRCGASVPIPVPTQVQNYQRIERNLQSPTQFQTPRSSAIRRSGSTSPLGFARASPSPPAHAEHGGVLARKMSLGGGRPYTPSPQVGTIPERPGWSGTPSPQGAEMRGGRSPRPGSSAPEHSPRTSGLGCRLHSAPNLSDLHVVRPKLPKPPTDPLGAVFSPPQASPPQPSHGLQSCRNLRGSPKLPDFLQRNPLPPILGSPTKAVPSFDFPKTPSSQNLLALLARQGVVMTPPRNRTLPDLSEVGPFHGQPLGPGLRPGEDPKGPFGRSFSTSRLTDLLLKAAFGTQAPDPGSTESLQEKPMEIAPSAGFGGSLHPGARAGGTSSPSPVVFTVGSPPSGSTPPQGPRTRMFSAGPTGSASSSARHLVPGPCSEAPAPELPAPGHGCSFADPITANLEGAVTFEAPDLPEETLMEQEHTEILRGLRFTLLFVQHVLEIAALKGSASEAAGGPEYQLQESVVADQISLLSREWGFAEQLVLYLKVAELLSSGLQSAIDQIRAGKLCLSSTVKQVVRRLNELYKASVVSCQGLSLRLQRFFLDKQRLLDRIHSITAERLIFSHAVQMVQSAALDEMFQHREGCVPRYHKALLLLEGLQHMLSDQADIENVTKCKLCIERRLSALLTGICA

GST-ULK1 = biological target: T3, GST-ULK1 (Homo sapiens, UniProt O75385); assay: LanthaScreen ULK1 inhibitor assay; format: biochemical; conditions: 5 nM GST-ULK1, 30 nM tracer, 20 μM ATP, 1 hr room temperature
T3 sequence (O75385 1-1050): T2 sequence (O75385 1-1050)

ULK1-nanoluc = biological target: T4, ULK1-nanoluc (Homo sapiens, UniProt O75385); assay: NanoBRET target engagement in live cells; format: cell-based; conditions: H2030 cells transfected with ULK1-nanoluc, Tracer K10, 2 hr
T4 construct: host or cells: H2030 cells (ATCC)
T4 sequence (O75385 1-1050): T2 sequence (O75385 1-1050)

SMILES	ΔTm at 50 µM (ULK1 kinase domain) [°C]	IC50 (ULK1 kinase) [nM]	IC50 (GST-ULK1) [nM]	EC50 (ULK1-nanoluc) [nM]
O=C(NCC(F)(F)F)c1cc(-c2cnc3[nH]c(-c4ccc(OCCN5CCCCC5)cc4)cc3c2)cs1 [Compound 38, 4-(2-(4-(2-(Piperidin-1-yl)ethoxy)phenyl)-1H-pyrrolo[2,3-b]pyridin-5-yl)-N-(2,2,2-trifluoroethyl)thiophene-2-carboxamide]	12.8	15	14	22
O=C(NC[C@H](O)CO)c1cccc(-c2cnc3[nH]c(-c4ccc(F)cc4)cc3c2)n1 [Compound 58, (S)—N-(2,3-Dihydroxypropyl)-6-(2-(4-fluorophenyl)-1H-pyrrolo[2,3-b]pyridin-5-yl)-picolinamide]	9.22	22	67	2370
CC[C@@H](CO)NC(=O)c1cccc(-c2cnc3[nH]c(-c4ccc(F)cc4)cc3c2)n1 [Compound 59, (S)-6-(2-(4-Fluorophenyl)-1H-pyrrolo[2,3-b]pyridin-5-yl)-N-(1-hydroxybutan-2-yl)-picolinamide]	11	7	10	149
CC[C@@H](CO)NC(=O)c1nc(-c2cnc3[nH]c(-c4ccc(F)cc4)cc3c2)cs1 [Compound 61, (S)-4-(2-(4-Fluorophenyl)-1H-pyrrolo[2,3-b]pyridin-5-yl)-N-(1-hydroxybutan-2-yl)-thiazole-2-carboxamide]	9.31	8	7	131
O=C(NCC(O)C(F)(F)F)c1nc(-c2cnc3[nH]c(-c4ccc(F)cc4)cc3c2)cs1 (centres unmarked) [Compound 65, 4-(2-(4-Fluorophenyl)-1H-pyrrolo[2,3-b]pyridin-5-yl)-N-(3,3,3-trifluoro-2-hydroxy-propyl)thiazole-2-carboxamide]	7.12	29	17	122
O=C(NCC1(O)CCC1)c1nc(-c2cnc3[nH]c(-c4ccc(F)cc4)cc3c2)cs1 [Compound 70, 4-(2-(4-fluorophenyl)-1H-pyrrolo[2,3-b]pyridin-5-yl)-N-((1-hydroxycyclobutyl)methyl)thiazole-2-carboxamide]	8.04	22	8	129
O=C(NCC1CC1)c1nc(-c2cnc3[nH]c(-c4ccc(F)cc4)cc3c2)cs1 [Compound 71, N-(cyclopropylmethyl)-4-(2-(4-fluorophenyl)-1H-pyrrolo[2,3-b]-pyridin-5-yl)thiazole-2-carboxamide]	3.73	14	39	414
O=C(NCC1(O)CC1)c1nc(-c2cnc3[nH]c(-c4ccc(F)cc4)cc3c2)cs1 [Compound 73, 4-(2-(4-fluorophenyl)-1H-pyrrolo-[2,3-b]pyridin-5-yl)-N-((1-hydroxy-cyclopropyl)methyl)thiazole-2-carboxamide]	7.72	10	3	195
C[C@@H](CO)NC(=O)c1nc(-c2cnc3[nH]c(-c4ccc(F)cc4)cc3c2)cs1 [Compound 76, (S)-4-(2-(4-fluorophenyl)-1H-pyrrolo[2,3-b]pyridin-5-yl)-N-(1-hydroxypropan-2-yl)thiazole-2-carboxamide]	7.56	44	25	541
O=C(NCCF)c1nc(-c2cnc3[nH]c(-c4ccc(F)cc4)cc3c2)cs1 [Compound 78, N-(2-fluoroethyl)-4-(2-(4-fluoro-phenyl)-1H-pyrrolo[2,3-b]pyridin-5-yl)thiazole-2-carboxamide]	4.83	20	27	282
O=C(NCC(F)F)c1nc(-c2cnc3[nH]c(-c4ccc(F)cc4)cc3c2)cs1 [Compound 79, N-(2,2-difluoroethyl)-4-(2-(4-fluorophenyl)-1H-pyrrolo[2,3-b]-pyridin-5-yl)thiazole-2-carboxamide]	5.45	12	16	156
FC(F)(F)c1cnc2[nH]c(C3=CCOCC3)cc2c1NCCN1CCNCC1 [Compound 87, 2-(3,6-dihydro-2H-pyran-4-yl)-N-(2-(piperazin-1-yl)ethyl)-5-(trifluoromethyl)-1H-pyrrolo[2,3-b]pyridin-4-amine]	12.5	10	16	76
FC(F)(F)c1cnc2[nH]c(C3=CCOCC3)cc2c1NCCN1CCOCC1 [Compound 89, 2-(3,6-dihydro-2H-pyran-4-yl)-N-(2-morpholinoethyl)-5-(trifluoromethyl)-1H-pyrrolo[2,3-b]pyridin-4-amine]	8.13	37	92	1160
CN1CC=C(c2cc3c(NC4CCNC4)c(C(F)(F)F)cnc3[nH]2)CC1 (centres unmarked) [Compound 98, 2-(1-methyl-1,2,3,6-tetrahydropyridin-4-yl)-N-(pyrrolidin-3-yl)-5-(trifluoromethyl)-1H-pyrrolo[2,3-b]pyridin-4-amine]	10.3	144	57	184
CN1CC=C(c2cc3c(NCCN4CCNCC4)c(C(F)(F)F)cnc3[nH]2)CC1 [Compound 101, 2-(1-methyl-1,2,3,6-tetrahydropyridin-4-yl)-N-(2-(piperazin-1-yl)ethyl)-5-(trifluoromethyl)-1H-pyrrolo[2,3-b]pyridin-4-amine]	11	131	50	157
C[C@H](CO)NC(=O)c1cc(-c2cnc3[nH]c(C4=CCCNC4)cc3c2)cs1 [Compound 103]			36	1400
C[C@@H](CO)NC(=O)c1cc(-c2cnc3[nH]c(C4=CCNC4)cc3c2)cs1 [Compound 104]			29	4290
C[C@H](CO)NC(=O)c1cc(-c2cnc3[nH]c(C4=CCNC4)cc3c2)cs1 [Compound 105]			139	≥ 10000
C[C@@H](CO)NC(=O)c1cc(-c2cnc3[nH]c(C4=CCNCC4)cc3c2)cs1 [Compound 106]			16	1130
C[C@@H](CO)NC(=O)c1cc(-c2cnc3[nH]c(C4=CCN(C)CC4)cc3c2)cs1 [Compound 107]			19	391
O=C(NCC1(O)CC1)c1cc(-c2cnc3[nH]c(C4=CNCCC4)cc3c2)cs1 [Compound 108]			26	219
FC1(F)CN(c2c(C(F)(F)F)cnc3[nH]c(C4=CCNC4)cc23)C1 [Compound 140]			1	86
